Drawing on patent US20050197350A1, “Novel quinoline, tetrahydroquinazoline, and pyrimidine derivatives and methods of treatment related to the use thereof” (TAISHO PHARMACEUTICAL CO., LTD., priority 2003, published 2005), this text covers class for 31 compounds.

Molecules are shown by their SMILES.

The test system of the test is MCH receptors. The test can be described thus: MCH receptor activity class (method not given). The conditions noted are these: class by percent of control at 10^-7 M or IC50.

For `COc1cc(OC)c(CNC[C@H]2CC[C@@H](Nc3nccc(N(C)C)n3)CC2)c(OC)c1` [compound 1282], the class is listed as 1 (Class 1: The value of percent of control at 10^−7 M was less than 40% or the value of IC50 was less than 50 nM.). Consider `CN(C)c1ccnc(N[C@H]2CC[C@@H](CNCc3cc(Cl)cc(Br)c3O)CC2)n1` [compound 1283], for which the class is listed as 3 (Class 3 The value of percent of control at 10^−7 M was more than 60% or the value of IC50 was more than 200 nM.). `CN(C)c1ccnc(N[C@H]2CC[C@@H](CNCc3cccc(C#N)c3)CC2)n1` [compound 1284]: the class is listed as 3 (Class 3 The value of percent of control at 10^−7 M was more than 60% or the value of IC50 was more than 200 nM.).

Take `COc1ccc(F)c(CNC[C@H]2CC[C@@H](Nc3nccc(N(C)C)n3)CC2)c1` [compound 1285]: the class is given as 3 (Class 3 The value of percent of control at 10^−7 M was more than 60% or the value of IC50 was more than 200 nM.). As for `CN(C)c1ccnc(N[C@H]2CC[C@@H](CNCc3ccccc3SC(F)(F)F)CC2)n1` [compound 1286], the class is 3 (Class 3 The value of percent of control at 10^−7 M was more than 60% or the value of IC50 was more than 200 nM.). Regarding `CCOc1ccc(Br)cc1CNC[C@H]1CC[C@@H](Nc2nccc(N(C)C)n2)CC1` [compound 1287], the class is recorded as 1 (Class 1: The value of percent of control at 10^−7 M was less than 40% or the value of IC50 was less than 50 nM.). Consider `COc1ccc(CNC[C@H]2CC[C@@H](Nc3nccc(N(C)C)n3)CC2)c(OC)c1C` [compound 1288], for which the class is recorded as 1 (Class 1: The value of percent of control at 10^−7 M was less than 40% or the value of IC50 was less than 50 nM.). On to `CN(C)c1ccnc(N[C@H]2CC[C@@H](CNCc3ccccc3OC(F)(F)F)CC2)n1` [compound 1289], for which the class is recorded as 3 (Class 3 The value of percent of control at 10^−7 M was more than 60% or the value of IC50 was more than 200 nM.).

Take `CCOc1ccc(OCC)c(CNC[C@H]2CC[C@@H](Nc3nccc(N(C)C)n3)CC2)c1` [compound 1290]: the class is listed as 1 (Class 1: The value of percent of control at 10^−7 M was less than 40% or the value of IC50 was less than 50 nM.).

As for `CCOc1ccc(CNC[C@H]2CC[C@@H](Nc3nccc(N(C)C)n3)CC2)c(OCC)c1` [compound 1291], the class is 2 (Class 2: The value of percent of control at 10^−7 M was from 40% to 60% or the value of IC′50 was from 50 nM to 200 nM.). On to `COc1c(Br)cc(Br)cc1CNC[C@H]1CC[C@@H](Nc2nccc(N(C)C)n2)CC1` [compound 1292], for which the class is on record as 1 (Class 1: The value of percent of control at 10^−7 M was less than 40% or the value of IC50 was less than 50 nM.). For `CN(C)c1ccnc(N[C@H]2CC[C@@H](CNCc3ccccc3OC(F)F)CC2)n1` [compound 1293], the class is 3 (Class 3 The value of percent of control at 10^−7 M was more than 60% or the value of IC50 was more than 200 nM.).

As for `COc1ccc(F)cc1CNC[C@H]1CC[C@@H](Nc2nccc(N(C)C)n2)CC1` [compound 1294], the class is 3 (Class 3 The value of percent of control at 10^−7 M was more than 60% or the value of IC50 was more than 200 nM.).

On to `CCOc1cc(OCC)c(OCC)cc1CNC[C@H]1CC[C@@H](Nc2nccc(N(C)C)n2)CC1` [compound 1295], for which the class was 1 (Class 1: The value of percent of control at 10^−7 M was less than 40% or the value of IC50 was less than 50 nM.). Take `COc1cc(OC)c(OC)cc1CNC[C@H]1CC[C@@H](Nc2nccc(N(C)C)n2)CC1` [compound 1296]: the class is given as 2 (Class 2: The value of percent of control at 10^−7 M was from 40% to 60% or the value of IC′50 was from 50 nM to 200 nM.). The value for `COc1cccc(CNC[C@H]2CC[C@@H](Nc3nccc(N(C)C)n3)CC2)c1OC` [compound 1297] was 3 (Class 3 The value of percent of control at 10^−7 M was more than 60% or the value of IC50 was more than 200 nM.). The value for `C=CCOc1ccccc1CNC[C@H]1CC[C@@H](Nc2nccc(N(C)C)n2)CC1` [compound 1298] was 1 (Class 1: The value of percent of control at 10^−7 M was less than 40% or the value of IC50 was less than 50 nM.). Take `CN(C)c1ccnc(N[C@H]2CC[C@@H](CNCc3csc4ccccc34)CC2)n1` [compound 1299]: the class was 3 (Class 3 The value of percent of control at 10^−7 M was more than 60% or the value of IC50 was more than 200 nM.). As to `CN(C)c1ccnc(N[C@H]2CC[C@@H](CNCc3cn(C)c4ccccc34)CC2)n1` [compound 1300], the class is recorded as 2 (Class 2: The value of percent of control at 10^−7 M was from 40% to 60% or the value of IC′50 was from 50 nM to 200 nM.). The value for `Cc1ccc(CNC[C@H]2CC[C@@H](Nc3nccc(N(C)C)n3)CC2)s1` [compound 1301] was 3 (Class 3 The value of percent of control at 10^−7 M was more than 60% or the value of IC50 was more than 200 nM.). Turning to `Cc1cc(C)c(CNC[C@H]2CC[C@@H](Nc3nccc(N(C)C)n3)CC2)c(C)c1` [compound 1302], the class is 3 (Class 3 The value of percent of control at 10^−7 M was more than 60% or the value of IC50 was more than 200 nM.).

Regarding `CN(C)c1ccnc(N[C@H]2CC[C@@H](CNCc3ccc4c(c3)OCO4)CC2)n1` [compound 1303], the class was 3 (Class 3 The value of percent of control at 10^−7 M was more than 60% or the value of IC50 was more than 200 nM.). As for `CN(C)c1ccnc(N[C@H]2CC[C@@H](CNCc3ccsc3)CC2)n1` [compound 1304], the class is recorded as 3 (Class 3 The value of percent of control at 10^−7 M was more than 60% or the value of IC50 was more than 200 nM.). In the case of `Cc1cccc(CNC[C@H]2CC[C@@H](Nc3nccc(N(C)C)n3)CC2)c1` [compound 1305], the class is 3 (Class 3 The value of percent of control at 10^−7 M was more than 60% or the value of IC50 was more than 200 nM.).

Turning to `Cc1ccccc1CNC[C@H]1CC[C@@H](Nc2nccc(N(C)C)n2)CC1` [compound 1306], the class was 3 (Class 3 The value of percent of control at 10^−7 M was more than 60% or the value of IC50 was more than 200 nM.). In the case of `Cc1ccc(CNC[C@H]2CC[C@@H](Nc3nccc(N(C)C)n3)CC2)cc1` [compound 1307] it was 3 (Class 3 The value of percent of control at 10^−7 M was more than 60% or the value of IC50 was more than 200 nM.). On to `CN(C)c1ccnc(N[C@H]2CC[C@@H](CNCc3cc(Cl)cc(Cl)c3)CC2)n1` [compound 1308], for which the class is recorded as 3 (Class 3 The value of percent of control at 10^−7 M was more than 60% or the value of IC50 was more than 200 nM.). As to `COc1cc(CNC[C@H]2CC[C@@H](Nc3nccc(N(C)C)n3)CC2)cc2c1OCO2` [compound 1309], the class is given as 1 (Class 1: The value of percent of control at 10^−7 M was less than 40% or the value of IC50 was less than 50 nM.). On to `COc1cc(CNC[C@H]2CC[C@@H](Nc3nccc(N(C)C)n3)CC2)cc(Br)c1OC` [compound 1310], for which the class was 1 (Class 1: The value of percent of control at 10^−7 M was less than 40% or the value of IC50 was less than 50 nM.). Consider `COc1ccc(CNC[C@H]2CC[C@@H](Nc3nccc(N(C)C)n3)CC2)cc1C` [compound 1311], for which the class is given as 2 (Class 2: The value of percent of control at 10^−7 M was from 40% to 60% or the value of IC′50 was from 50 nM to 200 nM.). `COc1cc(Br)c(CNC[C@H]2CC[C@@H](Nc3nccc(N(C)C)n3)CC2)cc1OC` [compound 1312]: the class is recorded as 2 (Class 2: The value of percent of control at 10^−7 M was from 40% to 60% or the value of IC′50 was from 50 nM to 200 nM.).
